Experimental data taken from patent publication US10711011B2, “Substituted oxazolidines as anti-bacterial agents” (BUGWORKS RESEARCH, INC., priority 2016, dated 2020).
Values after ≈ are worked out from the molar mass of the structure shown.

How the values were obtained:
[1] = test system: K. pneumoniae (Kpn) clinical strains; assay: MIC50 and MIC90 studies using clinical strains (CLSI guidelines); format: cell-based
[2] = test system: P. aurigenosa (Pae) clinical strains; assay: as above; format: cell-based
[3] = test system: E. coli ATCC 25922; assay: Minimum Inhibitory Concentration (MIC) in LB media; format: cell-based, Escherichia coli; conditions: for MIC: Escherichia coli, ATCC25922, LB Media
Source text: (§1) The compounds of Formula I are of interest due to their potent antibacterial effects. The ability of the invention compounds disclosed herein to achieve an antibacterial effect may be evaluated with regard to their ability to inhibit the growth of bacterial species like Escherichia coli ATCC 25922, Staphylococcus aureus ATCC 29213, Klebsiella pneumoniae ATCC 13883, Acinetobacter baumannii ATCC 19606, Pseudomonas aurigenosa ATCC 27853, Enterococcus faecalis ATCC 29212 and Enterococcus faecalis ATCC 29212 using an assay based on the following Minimum Inhibitory Concentration (MIC) protocol:
(§2) The test bacteria are grown in Luria Bertani Broth (HIMEDIA M1245), 25 grams of the powder is dissolved in 1000 ml distilled water and sterilized by autoclaving at 15 lbs pressure (121° C.) for 20 minutes. The medium sterility is checked by incubating at 37° C. for a period of 48 h.
(§3) Bacterial cultures that are stored as glycerol stocks at −80° C. are sub cultured on LB agar plates to obtain isolated colonies. A single colony of each strain is cultured in LB broth. The cultures are incubated at 37° C., 200 rpm till they reach an optical density (OD at 600 nm) of 0.8 to 1. […] Test compounds are dissolved in dimethyl sulfoxide (DMSO) to a stock concentration of 4 mg/ml. A twofold dilution series of this DMSO stock is prepared in a 96 well V bottom microtitre plate from rows A to H. A 3 μL volume of these dilutions are transferred to a 96-well flat bottom microtitre assay plate. Controls to monitor the effects of DMSO and media sterility are included. Each well is inoculated with 150 μL of the above diluted culture. The plates are incubated at 37° C. overnight in a humidified incubator. The following morning, the plates are read using a Spectrophotometer at 600 nm wavelength. […] The antibacterial activity (MIC) determined against representative Gram positive (S. aureus, E. faecalis) and Gram negative (E. coli, P. aurigenosa, K. pneumoniae and A. baumannii) pathogen were reported Table 1.

[4] = molecular target: E. coli DNA gyrase (Escherichia coli, UniProt P0AES4+P0AES6); assay: biochemical; conditions: supercoiling assay
[5] = test system: E. coli clinical strains; assay: MIC50 and MIC90 studies using clinical strains (CLSI guidelines); format: cell-based
[6] = test system: A. baumannii ATCC 19606; assay: Minimum Inhibitory Concentration (MIC) in LB media; format: cell-based, Acinetobacter baumannii; conditions: for MIC: Acinetobacter baumannii, ATCC19606, LB Media
Source text: as §1, §2, §3

[7] = test system: P. aurigenosa ATCC 27853; assay: Minimum Inhibitory Concentration (MIC) in LB media; format: cell-based, Pseudomonas aurigenosa; conditions: for MIC: Pseudomonas, ATCC27853, LB Media
Source text: as §1, §2, §3

[8] = test system: E. faecalis ATCC 29212; assay: Minimum Inhibitory Concentration (MIC) in LB media; format: cell-based, Enterococcus faecalis; conditions: for MIC: Enterococcus faecalis, ATCC29212
Source text: as §1, §2, §3

[9] = test system: A. baumannii (Aba) clinical strains; assay: MIC50 and MIC90 studies using clinical strains (CLSI guidelines); format: cell-based
[10] = test system: K. pneumoniae ATCC 13883; assay: Minimum Inhibitory Concentration (MIC) in LB media; format: cell-based, Klebsiella pneumoniae; conditions: for MIC: Klebsiella pneumoniae, ATCC13883, LB Media
Source text: as §1, §2, §3

[11] = test system: S. aureus ATCC 29213; assay: Minimum Inhibitory Concentration (MIC) in LB media; format: cell-based, Staphylococcus aureus; conditions: for MIC: Staphylococcus aureus, ATCC29213, LB Media
Source text: as §1, §2, §3

[12] = molecular target: E. coli topoisomerase IV (Escherichia coli, UniProt P0AFI2+P20083); assay: biochemical; conditions: decatenation assay; read-out: E. coli Topo IV IC50
[13] = Klebsiella pneumoniae, Kpn, 211 strains
[14] = Escherichia coli, E. coli, 201 strains
[15] = Acinetobacter baumannii, Aba, 169 strains

Chain of E. coli topoisomerase IV (P0AFI2 whole entry): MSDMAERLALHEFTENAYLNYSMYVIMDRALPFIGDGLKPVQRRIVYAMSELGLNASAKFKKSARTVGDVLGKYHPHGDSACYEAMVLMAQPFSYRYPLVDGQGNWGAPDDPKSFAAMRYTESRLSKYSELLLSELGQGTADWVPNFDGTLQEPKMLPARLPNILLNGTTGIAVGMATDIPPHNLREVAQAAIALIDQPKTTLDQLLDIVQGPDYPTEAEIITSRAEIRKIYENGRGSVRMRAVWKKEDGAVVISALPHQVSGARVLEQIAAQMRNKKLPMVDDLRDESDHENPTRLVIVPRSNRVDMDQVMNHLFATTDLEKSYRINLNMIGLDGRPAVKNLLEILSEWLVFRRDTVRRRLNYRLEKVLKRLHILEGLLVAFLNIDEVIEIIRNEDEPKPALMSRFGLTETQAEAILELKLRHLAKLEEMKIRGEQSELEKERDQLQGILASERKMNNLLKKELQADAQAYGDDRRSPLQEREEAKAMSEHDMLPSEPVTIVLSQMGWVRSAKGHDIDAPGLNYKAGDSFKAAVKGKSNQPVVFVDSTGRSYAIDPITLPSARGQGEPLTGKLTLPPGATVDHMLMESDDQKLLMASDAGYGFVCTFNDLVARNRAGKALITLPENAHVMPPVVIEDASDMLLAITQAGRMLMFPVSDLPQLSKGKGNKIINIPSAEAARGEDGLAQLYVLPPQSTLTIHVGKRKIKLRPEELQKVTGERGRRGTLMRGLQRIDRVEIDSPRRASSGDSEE
Chain of E. coli topoisomerase IV (P20083 whole entry): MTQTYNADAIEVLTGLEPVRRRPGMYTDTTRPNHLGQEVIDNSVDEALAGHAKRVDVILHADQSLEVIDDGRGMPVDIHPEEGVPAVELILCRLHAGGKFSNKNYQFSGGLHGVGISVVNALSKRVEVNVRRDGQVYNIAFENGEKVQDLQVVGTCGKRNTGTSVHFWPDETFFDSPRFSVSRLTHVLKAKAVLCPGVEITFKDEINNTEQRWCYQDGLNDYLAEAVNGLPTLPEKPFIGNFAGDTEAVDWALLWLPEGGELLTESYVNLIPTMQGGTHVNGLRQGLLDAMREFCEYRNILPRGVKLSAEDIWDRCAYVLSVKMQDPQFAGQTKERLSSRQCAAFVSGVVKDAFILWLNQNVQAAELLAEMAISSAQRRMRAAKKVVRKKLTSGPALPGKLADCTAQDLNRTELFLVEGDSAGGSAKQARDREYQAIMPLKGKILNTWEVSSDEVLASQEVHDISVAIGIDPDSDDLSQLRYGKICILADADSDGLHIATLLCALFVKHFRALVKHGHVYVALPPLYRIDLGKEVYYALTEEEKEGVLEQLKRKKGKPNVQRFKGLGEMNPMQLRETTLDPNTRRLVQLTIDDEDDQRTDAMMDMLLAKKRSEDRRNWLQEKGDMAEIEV
Chain of E. coli DNA gyrase (P0AES4 whole entry, one chain of several): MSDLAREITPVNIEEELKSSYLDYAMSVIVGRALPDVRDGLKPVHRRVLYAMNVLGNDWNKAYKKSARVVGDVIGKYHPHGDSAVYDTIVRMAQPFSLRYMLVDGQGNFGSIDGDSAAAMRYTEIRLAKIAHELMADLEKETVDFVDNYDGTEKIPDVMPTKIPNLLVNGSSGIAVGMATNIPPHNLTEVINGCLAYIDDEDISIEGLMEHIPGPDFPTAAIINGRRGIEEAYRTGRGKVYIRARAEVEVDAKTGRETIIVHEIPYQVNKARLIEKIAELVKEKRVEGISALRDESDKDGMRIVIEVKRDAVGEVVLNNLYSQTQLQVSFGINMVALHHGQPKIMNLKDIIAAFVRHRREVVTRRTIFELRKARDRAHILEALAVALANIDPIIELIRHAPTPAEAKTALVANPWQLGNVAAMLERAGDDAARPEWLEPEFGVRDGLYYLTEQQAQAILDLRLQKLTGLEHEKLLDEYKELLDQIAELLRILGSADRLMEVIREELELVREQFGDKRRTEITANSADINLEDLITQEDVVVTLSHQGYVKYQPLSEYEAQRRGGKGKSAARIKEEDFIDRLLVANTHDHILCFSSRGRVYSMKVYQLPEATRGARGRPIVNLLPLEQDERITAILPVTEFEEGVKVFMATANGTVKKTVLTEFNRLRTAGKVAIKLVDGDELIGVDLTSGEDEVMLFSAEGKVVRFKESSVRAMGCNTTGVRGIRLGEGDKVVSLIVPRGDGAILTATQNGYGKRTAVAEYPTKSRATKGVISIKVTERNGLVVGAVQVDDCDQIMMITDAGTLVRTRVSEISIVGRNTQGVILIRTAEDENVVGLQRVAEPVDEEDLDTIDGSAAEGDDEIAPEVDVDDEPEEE

Structure (SMILES): CN1C(=O)Cc2ccc(F)c(CCNCCC3CN(c4ccc5c(n4)NC(=O)CO5)C(=O)O3)c21 (single isomer, unassigned) [Example 14, 6-(5-(2-((2-(6-fluoro-1-methyl-2-oxoindolin-7-yl)ethyl)amino)ethyl)-2-oxooxazolidin-3-yl)-2H-pyrido[3,2-b][1,4]oxazin-3(4H)-one]
- MIC50 [1, 13]: 1 µg/mL (≈ 2.13 µM)
- MIC90 [1, 13]: 4 µg/mL (≈ 8.52 µM)
- MIC ATCC13883 ([1]; Kpn reference strain ATCC13883, unit inferred): 0.25 µg/mL (≈ 0.533 µM)
- Minimum (MIC) ([1]; Kpn, 211 strains, unit inferred): 0.06 µg/mL
- MIC ATCC27853 ([2]; Pae reference strain ATCC27853, unit inferred): 0.5 µg/mL (≈ 1.07 µM)
- MIC50 ([2]; Pae, 215 strains): 0.5 µg/mL (≈ 1.07 µM)
- MIC90 ([2]; Pae, 215 strains): 1 µg/mL (≈ 2.13 µM)
- Minimum (MIC) ([2]; Pae, 215 strains, unit not given, in µg/mL): 0.03125
- Minimum Inhibitory Concentration E. coli ATCC 25922 ([3]; LB Media): 0.03 µg/mL
- IC50 [4]: 0.1 µM
- MIC ATCC25922 ([5]; E. coli reference strain ATCC25922, no unit in this row (MIC50/MIC90 rows: μg/ml)): 0.06 µg/mL (≈ 0.128 µM)
- Minimum (MIC) ([5]; E. coli, 201 strains, unit inferred): 0.03 µg/mL
- MIC50 [5, 14]: 0.25 µg/mL (≈ 0.533 µM)
- MIC90 [5, 14]: 0.5 µg/mL (≈ 1.07 µM)
- Minimum Inhibitory Concentration A. baumannii ATCC 19606 ([6]; LB Media): 0.03 µg/mL
- Minimum Inhibitory Concentration P. aurigenosa ATCC 27853 ([7]; LB Media): 0.5 µg/mL
- Minimum Inhibitory Concentration E. faecalis ATCC 29212 [8]: 0.25 µg/mL
- MIC ATCC19606 ([9]; Aba reference strain ATCC19606, unit inferred): 0.06 µg/mL (≈ 0.128 µM)
- Minimum (MIC) ([9]; Aba, 169 strains, unit not given, in µg/mL): 0.015
- MIC50 [9, 15]: 0.25 µg/mL (≈ 0.533 µM)
- MIC90 [9, 15]: 0.5 µg/mL (≈ 1.07 µM)
- Minimum Inhibitory Concentration K. pneumoniae ATCC 13883 ([10]; LB Media): 0.125 µg/mL
- Minimum Inhibitory Concentration S. aureus ATCC 29213 ([11]; LB Media): 0.03 µg/mL
- IC50 [12]: 0.036 µM

Structure (SMILES): CCN1C(=O)Cc2ccc(F)c(CNCCCC3CN(c4ccc5c(n4)NC(=O)CO5)C(=O)O3)c21 (stereo not shown) [Example 8, 6-(5-(3-(((1-Ethyl-6-fluoro-2-oxoindolin-7-yl)methyl)amino)propyl)-2-oxooxazolidin-3-yl)-2H-pyrido[3,2-b][1,4]oxazin-3(4H)-one]
- MIC [3]: 0.15 µg/mL (≈ 0.31 µM)
- IC50 [4]: 0.054 µM
- MIC [6]: 0.15 µg/mL (≈ 0.31 µM)
- MIC [7]: 2.5 µg/mL (≈ 5.17 µM)
- MIC [8]: 0.15 µg/mL (≈ 0.31 µM)
- MIC [10]: 0.3 µg/mL (≈ 0.62 µM)
- MIC [11]: 0.07 µg/mL (≈ 0.145 µM)
- IC50 [12]: 0.362 µM

Structure (SMILES): CN1C(=O)Cc2ccc(F)c(CNCCCC3CN(c4ccc5c(c4)NC(=O)CO5)C(=O)O3)c21 (stereo not shown) [Example 12, 6-(5-(3-(((6-fluoro-1-methyl-2-oxoindolin-7-yl)methyl)amino)propyl)-2-oxooxazolidin-3-yl)-2H-benzo[b][1,4]oxazin-3(4H)-one]
- MIC [3]: 0.25 µg/mL (≈ 0.534 µM)
- IC50 [4]: 0.089 µM
- MIC [6]: 0.13 µg/mL (≈ 0.277 µM)
- MIC [7]: 2 µg/mL (≈ 4.27 µM)
- MIC [8]: 0.5 µg/mL (≈ 1.07 µM)
- MIC [10]: 0.5 µg/mL (≈ 1.07 µM)
- MIC [11]: 0.25 µg/mL (≈ 0.534 µM)
- IC50 [12]: 0.6 µM
